According to patent publication US11161860B2, “Compound having effects of inhibiting phosphodiesterase 4, preparation method thereof and pharmaceutical use thereof” (Hefei Industrial Pharmaceutical Institute Co., Ltd., priority 2018, dated 2021):
Marks after values point to notes of the source that are not given here.

Legend:
PDE4A enzyme = biological target: T1, PDE4A enzyme (Homo sapiens, UniProt P27815); test: Inhibition of the activity of PDE4A enzyme (fluorescence polarization, Transcreener AMP2/GMP2); format: biochemical; conditions: 1 h, mean ± spread; for remaining activity at 0.01 µM: 0.01 μM compound; for remaining activity at 0.1 µM: 0.1 μM compound; for remaining activity at 1 µM: 1 μM compound
T1 construct: GST (N); host or cells: Sf9 insect cells (baculovirus)
T1 sequence (P27815 whole entry, species assumed): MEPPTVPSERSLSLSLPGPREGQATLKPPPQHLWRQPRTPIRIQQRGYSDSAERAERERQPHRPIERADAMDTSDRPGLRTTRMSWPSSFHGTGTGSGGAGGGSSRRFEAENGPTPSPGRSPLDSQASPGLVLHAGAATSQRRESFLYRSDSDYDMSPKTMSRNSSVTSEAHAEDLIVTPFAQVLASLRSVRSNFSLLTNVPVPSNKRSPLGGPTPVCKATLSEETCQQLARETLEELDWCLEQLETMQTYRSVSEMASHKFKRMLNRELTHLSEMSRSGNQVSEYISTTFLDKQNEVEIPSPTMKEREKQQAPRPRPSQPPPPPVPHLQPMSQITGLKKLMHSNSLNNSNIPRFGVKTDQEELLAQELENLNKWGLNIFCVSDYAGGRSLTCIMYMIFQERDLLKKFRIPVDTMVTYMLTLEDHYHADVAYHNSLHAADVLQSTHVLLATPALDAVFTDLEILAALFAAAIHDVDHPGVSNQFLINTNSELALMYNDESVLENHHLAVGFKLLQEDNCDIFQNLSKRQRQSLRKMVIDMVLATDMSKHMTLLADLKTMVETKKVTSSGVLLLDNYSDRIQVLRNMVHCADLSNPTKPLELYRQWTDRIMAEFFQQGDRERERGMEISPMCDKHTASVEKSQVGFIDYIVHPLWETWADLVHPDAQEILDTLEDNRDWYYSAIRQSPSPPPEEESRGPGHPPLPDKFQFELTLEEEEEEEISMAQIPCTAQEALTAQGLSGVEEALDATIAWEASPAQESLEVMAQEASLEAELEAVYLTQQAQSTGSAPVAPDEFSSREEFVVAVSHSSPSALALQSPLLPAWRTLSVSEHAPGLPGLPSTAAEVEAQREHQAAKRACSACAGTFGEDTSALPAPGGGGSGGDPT
Experimental: The PDE4A enzyme expressed from baculovirus is labeled with N-terminal GST from Sf9 insect cells. A specified PDE4A enzyme and 1 mM cAMP are added to the newly prepared pH 7.5 Tris buffer, the enzyme solution is transferred into reaction wells, and the compound is sonicated in DMSO and then added to the enzyme solution for culturing for 10 minutes at room temperature; the substrate solution is poured into the reaction wells to initiate the reaction and cultured at room temperature for 1 hour, and a detection tracer (AMP2/GMP2 AlexaFluor 633 Tracer) and an antibody (Transcreener® AMP2/GMP2 Antibody) are added to stop the reaction for culturing for 90 minutes with gentle mixing. […]

[1] = tested on: DNCB-induced atopic dermatitis mice; test: DNCB-induced dermatitis mouse model, skin thickness; format: in vivo, female BALB/C mice; conditions: for reduction of the thickness of the dermis compared with Crisaborole / reduction of the thickness of the epidermis compared with Crisaborole / reduction of the thickness of the dermis compared with the compound Y5 / reduction of the thickness of the epidermis compared with the compound Y5: 50 mg/mL topical; for reduction of the thickness of the dermis compared with Crisaborole / reduction of the thickness of the epidermis compared with Crisaborole: statistical comparison vs Crisaborole group; for Epidermal thickness / Dermis thickness: 50 mg/mL, 100 μL applied to back skin, 11 times once a day, Mean ± SD, n = 8; for Epidermal thickness: model 137.76, blank 48.93; for Dermis thickness: model 500.71, blank 194.70; for reduction of the thicknesses of the epidermal layer and dermal layer: vs model group, P<0.01; for reduction of the thickness of the dermis compared with the compound Y5 / reduction of the thickness of the epidermis compared with the compound Y5: statistical comparison vs Y5 group
Experimental: After female BALB/C mice are selected, each weighing 18-22 g, for animal adaptive breeding for 7 days, these are randomly divided into a blank group, a model group, a positive drug Crisaborole group, a hexadecadrol group, and compound groups, with 8 in each group. Except for the mice in the blank group, the remaining mice are applied with 100 μL of a 1% DNCB solution [acetone: olive oil=4:1 (V/V)] on the skin of the back of the shaved mice, and applied continuously for 3 days once a day. Then, dosing treatment starts 4 days after the mice are housed, and the test drug is applied to the back of each group of animals, wherein animals in the blank group and the model group are applied with a corresponding solvent, the positive drug Crisaborole group and hexadecadrol group are applied with 50 mg/mL of a corresponding drug, and the administration group is applied with 50 mg/mL of a corresponding compound, with 100 μL for each mouse; after application of 4 hours, 0.5% DNCB solution is applied for secondary challenge, and repeated administration and challenge treatment are performed 11 times, once a day. 24 hours after the last administration, the animals are sacrificed, and the back skins (1×0.4 cm^2) are taken and fixed in 10% formalin buffer to make pathological sections and perform HE staining; then, the epidermal and dermal layers are observed under a 100× […], and 5 areas are selected for detection of and recording the skin thickness, and then the average value is taken to represent the final thicknesses of the epidermal layer and dermal layer, respectively.

| remaining activity at 0.01 µM (PDE4A enzyme) [%] | remaining activity at 0.1 µM (PDE4A enzyme) [%] | remaining activity at 1 µM (PDE4A enzyme) [%] | SMILES | reduction of the thickness of the dermis compared with Crisaborole [1] | reduction of the thickness of the epidermis compared with Crisaborole [1] | Epidermal thickness [1] | Dermis thickness [1] | reduction of the thicknesses of the epidermal layer and dermal layer [1] | reduction of the thickness of the dermis compared with the compound Y5 [1] | reduction of the thickness of the epidermis compared with the compound Y5 [1] |
| --- | --- | --- | --- | --- | --- | --- | --- | --- | --- | --- |
| 0.9 ± 0.23 | 0.6 ± 0.1 | 0.32 ± 0.13 | OB1OCc2cc(Oc3ccc4cc(C(F)(F)F)ccc4n3)ccc21 [PD-6] | significantly reduce the thickness of the dermis of dermatitis mice (P≤0.01) | significantly reduce the thickness of the epidermis (P≤0.01) | 70.87 ± 14.43 ^aa μm | 380.15 ± 22.54 ^a a μm | – | significantly reduce the thickness of the dermis of dermatitis mice (P≤0.01) | significantly reduce the thickness of the epidermis (P≤0.01) |
| 6.41 ± 0.32 | 1.83 ± 0.41 | 1.12 ± 0.99 | OB1OCc2cc(Oc3ccc4c(C(F)(F)F)cccc4n3)ccc21 [PD-7] | significantly reduce the thickness of the dermis of dermatitis mice (P≤0.01) | significantly reduce the thickness of the epidermis (P≤0.01) | 68.21 ± 7.66 aa μm | 370.11 ± 24.60 a a μm | – | significantly reduce the thickness of the dermis of dermatitis mice (P≤0.01) | significantly reduce the thickness of the epidermis (P≤0.01) |
| 4.36 ± 0.59 | 2.25 ± 1.19 | 1.21 ± 0.17 | OB1OCc2cc(Oc3ccc4c(C(F)(F)F)cc(Cl)cc4n3)ccc21 [PD-8] | significantly reduce the thickness of the dermis of dermatitis mice (P≤0.01) | significantly reduce the thickness of the epidermis (P≤0.01) | 76.58 ± 8.79**^##aa μm | 385.17 ± 28.85 ^a μm | – | significantly reduce the thickness of the dermis of dermatitis mice (P≤0.05) | significantly reduce the thickness of the epidermis (P≤0.01) |
| 3.41 ± 0.45 | 1.92 ± 0.39 | 0.99 ± 0.85 | N#Cc1ccc2nc(Oc3ccc4c(c3)COB4O)cc(C(F)(F)F)c2c1 [PD-9] | significantly reduce the thickness of the dermis of dermatitis mice (P≤0.05) | significantly reduce the thickness of the epidermis of the dermatitis mice (P≤0.05) | 97.25 ± 10.43 μm | 413.25 ± 31.50 μm | – | – | – |
| 10.8 ± 1.6 | 2.45 ± 0.32 | 1.55 ± 0.67 | COC(=O)c1ccc2nc(Oc3ccc4c(c3)COB4O)ccc2c1 [PD-10] | significantly reduce the thickness of the dermis of dermatitis mice (P≤0.01) | significantly reduce the thickness of the epidermis (P≤0.01) | 92.17 ± 9.94 μm | 406.74 ± 29.54 μm | – | – | – |
| 10.1 ± 1.93 | 5.85 ± 0.72 | 1.7 ± 0.43 | NC(=O)c1cccc2nc(Oc3ccc4c(c3)COB4O)ccc12 [PD-11] | – | – | 95.37 ± 8.75 μm | 443.17 ± 33.40 μm | – | – | – |
| 22.1 ± 0.57 | 6.2 ± 1.23 | 3.46 ± 1.12 | CC(=O)c1cccc2nc(Oc3ccc4c(c3)COB4O)ccc12 [PD-12] | significantly reduce the thickness of the dermis of dermatitis mice (P≤0.01) | significantly reduce the thickness of the epidermis (P≤0.01) | 72.15 ± 8.57 aa μm | 362.44 ± 25.78 ^a a μm | – | significantly reduce the thickness of the dermis of dermatitis mice (P≤0.01) | significantly reduce the thickness of the epidermis (P≤0.01) |
| 21.7 ± 1.51 | 8.68 ± 0.89 | 1.44 ± 0.4 | NC(=O)c1ccc2nc(Oc3ccc4c(c3)COB4O)ccc2c1 [PD-13] | – | – | 100.23 ± 11.62 μm | 450.26 ± 25.55 μm | – | – | – |

The next lines start with the molecule.

| SMILES | remaining activity at 0.01 µM (PDE4A enzyme) [%] | remaining activity at 0.1 µM (PDE4A enzyme) [%] | remaining activity at 1 µM (PDE4A enzyme) [%] | reduction of the thickness of the dermis compared with Crisaborole [1] | reduction of the thickness of the epidermis compared with Crisaborole [1] | Epidermal thickness [1] | Dermis thickness [1] | reduction of the thicknesses of the epidermal layer and dermal layer [1] | reduction of the thickness of the dermis compared with the compound Y5 [1] | reduction of the thickness of the epidermis compared with the compound Y5 [1] |
| --- | --- | --- | --- | --- | --- | --- | --- | --- | --- | --- |
| OB1OCc2cc(Oc3ccc(C(F)(F)F)cn3)ccc21 [Compound Y5, reference compound] | 61.3 ± 3.18 | 15.3 ± 1.3 | 5.56 ± 0.28 | significantly reduce the thickness of the dermis of dermatitis mice (P≤0.01) | significantly reduce the thickness of the epidermis of the dermatitis mice (P≤0.05) | 90.14 ± 8.98 μm | 415.08 ± 25.00 μm | significantly reduce the thicknesses of the epidermal layer and dermal layer | – | – |
| N#Cc1ccc(Oc2ccc3c(c2)COB3O)cc1 [Crisaborole, reference compound] | 78 ± 5.02 | 35.2 ± 3.35 | 11 ± 0.52 | – | – | 105.26 ± 11.35 μm | 455.14 ± 27.27 μm | significantly reduce the thicknesses of the epidermal layer and dermal layer | – | – |
| COC(=O)c1cccc2nc(Oc3ccc4c(c3)COB4O)ccc12 [PD-1] | 18.8 ± 3.23 | 5.45 ± 1.06 | 3.74 ± 0.71 | significantly reduce the thickness of the dermis of dermatitis mice (P≤0.01) | significantly reduce the thickness of the epidermis (P≤0.01) | 75.64 ± 7.86 aa μm | 385.26 ± 20.17 a μm | – | significantly reduce the thickness of the dermis of dermatitis mice (P≤0.05) | significantly reduce the thickness of the epidermis (P≤0.01) |
| O=C(O)c1cccc2nc(Oc3ccc4c(c3)COB4O)ccc12 [PD-2] | 7.42 ± 2.11 | 3.8 ± 0.76 | 2.75 ± 0.51 | – | – | 100.26 ± 11.35 μm | 439.76 ± 30.02 μm | – | – | – |
| CCOC(=O)c1cccc2nc(Oc3ccc4c(c3)COB4O)ccc12 [PD-3] | 17.3 ± 1.19 | 4.94 ± 1.56 | 1.98 ± 0.47 | significantly reduce the thickness of the dermis of dermatitis mice (P≤0.05) | – | 98.74 ± 9.63 μm | 420.80 ± 30.55 μm | – | – | – |
| N#Cc1ccc2nc(Oc3ccc4c(c3)COB4O)ccc2c1 [PD-4] | 6.17 ± 0.34 | 2.49 ± 0.75 | 1.95 ± 0.18 | significantly reduce the thickness of the dermis of dermatitis mice (P≤0.01) | significantly reduce the thickness of the epidermis (P≤0.01) | 70.42 ± 9.24 aa μm | 375.06 ± 20.41 a a μm | – | significantly reduce the thickness of the dermis of dermatitis mice (P≤0.01) | significantly reduce the thickness of the epidermis (P≤0.01) |
| COC(=O)c1cc(Oc2ccc3c(c2)COB3O)nc2ccccc12 [PD-5] | 9.01 ± 2.02 | 7.27 ± 1.78 | 3.46 ± 1.18 | – | – | 106.74 ± 15.14 μm | 440.12 ± 23.22 μm | – | – | – |
| C[C@@H]1C[C@H]2[C@@H]3CCC4=CC(=O)C=C[C@]4(C)[C@@]3(F)[C@@H](O)C[C@]2(C)[C@@]1(O)C(=O)CO [hexadecadrol, reference compound] | – | – | – | – | – | 72.14 ± 10.58 ^a a μm | 377.32 ± 22.05**^a a μm | significantly reduce the thicknesses of the epidermal layer and dermal layer | – | – |
